# Data published in patent US20100197585A1, “USE OF A RGD-PEPTIDE AND/OR PARATHYROID HORMONE (1-34) AS ANTI-HIV AGENT” (priority 2007, published 2010).
# Where no end group is shown, it is not given here.
# Assays:
# HCMV strain AD169 = test: HCMV plaque formation assay in MRC-5 cells; conditions: for inhibition of HCMV plaque formation as compared to the virus control: 10 micrograms per ml, 7-10 days
# HUVEC = test: Endothelial tube formation assay; assay type: cell-based, human; conditions: 10 micrograms per ml, 20 hours
# Human A549 cells = test: Apoptosis prevention assay (C2 ceramide, Annexin-5); assay type: cell-based; conditions: 10 micrograms per ml, 30 min pretreatment
# Streptococcus pneumoniae = Streptococcus pneumoniae assay; conditions: 10 micrograms per ml; 5x10^5 CFU/mL
# HIV-1IIIB = test: HIV-1 antiviral assay (cytopathic effect) in CEM-SS cells; conditions: for reduction of the cytopathic effect (CPE) in HIV-1 infected CEM-SS cells: 10 micrograms per ml, HIV-1IIIB, 6 days post-infection, MTS; for antiviral activity of positive control compounds (HIV-1): CEM-SS cells
# [1] = system: Primary Human endothelial cells (HUVEC); test: Endothelial cell migration assay; assay type: cell-based; conditions: 10 micrograms per ml, 22 hours
# murine spleen cells = test: Th1/Th2 cytokine profiling assay; assay type: cell-based, Balb/c mice; conditions: 10 micrograms per ml; Ovalbumin restimulation; 72 hours
# [2] = system: hepatitis B virus (HBV) ayw strain; test: HBV experimental assay system (secreted HBV DNA, TaqMan PCR); assay type: cell-based; conditions: 10 micrograms per ml; HepG2-2.2.15; six days; HBV DNA by TaqMan PCR
# Source text: HepG2-2.2.15 is a stable cell line containing the hepatitis B virus (HBV) ayw strain genome (ATCC Cat. No. CRL-11997). Antiviral compounds blocking any late step of viral replication such as transcription, translation, pregenome encapsidation, reverse transcription, particle assembly and release can be identified and characterized using this cell line. In this assay, an active compound will reduce the production of secreted HBV from cells, measured by utilizing real time quantitative PCR (TaqMan) assay to directly and accurately measure HBV DNA copies.
# HepG2-2.2.15 cells were plated in 96-well microtiter plates. After 16-24 hours the confluent monolayer of HepG2-2.2.15 cells was washed and the medium was replaced with complete medium containing test peptides—10 micrograms per ml—in duplicate. […] Six days following the initial administration of the peptides, the cell culture supernatants was collected, treated with pronase and DNAse and then used in a real-time quantitative TaqMan PCR assay. The PCR-amplified HBV DNA was detected in real-time by monitoring increases in fluorescence signals that result from the exonucleolytic degradation of a quenched fluorescence probe molecule that hybridizes to the amplified HBV DNA. […] Antiviral activity was calculated from the reduction in HBV DNA levels (% virus control). […]
Molecule,antiviral activity of positive control compound (HCMV) (HCMV strain AD169; positive control),inhibition of the tube formation of human endothelial cells (HUVEC),reduction of the ceramide-induced apoptosis on human lung cells (Human A549 cells),inhibition of HCMV plaque formation as compared to the virus control (HCMV strain AD169),inhibition of the growth of Streptococcus pneumoniae (Streptococcus pneumoniae),reduction of the cytopathic effect (CPE) in HIV-1 infected CEM-SS cells (HIV-1IIIB),inhibition of the migration of human endothelial cells [1],change of the production of IL-5 in murine spleen cells (murine spleen cells),decrease of the production of IFN-γ in murine spleen cells (murine spleen cells),increase of the production of IL-2 in murine spleen cells (murine spleen cells),increase of the production of IL-4 in murine spleen cells (murine spleen cells),induction of the production of TNF-alpha in murine spleen cells (murine spleen cells),inhibition of HBV replication as compared to the virus control infection [2],antiviral activity of positive control compounds (HIV-1) (HIV-1IIIB)
"Nc1nc(O)c2ncn(COC(CO)CO)c2n1 [Ganciclovir, reference compound]",expected levels of antiviral activity,,,,,,,,,,,,,
CC[C@H](C)[C@H](NC(=O)[C@H](CCC(=O)O)NC(=O)[C@H](CO)NC(=O)[C@@H](NC(=O)[C@@H](N)CO)C(C)C)C(=O)N[C@@H](CCC(N)=O)C(=O)N[C@@H](CC(C)C)C(=O)N[C@@H](CCSC)C(=O)N[C@@H](Cc1cnc[nH]1)C(=O)N[C@@H](CC(N)=O)C(=O)N[C@@H](CC(C)C)C(=O)NCC(=O)N[C@@H](CCCCN)C(=O)N[C@@H](Cc1cnc[nH]1)C(=O)N[C@@H](CC(C)C)C(=O)N[C@@H](CC(N)=O)C(=O)N[C@@H](CO)C(=O)N[C@@H](CCSC)C(=O)N[C@@H](CCC(=O)O)C(=O)N[C@@H](CCCN=C(N)N)C(=O)N[C@H](C(=O)N[C@@H](CCC(=O)O)C(=O)N[C@@H](Cc1c[nH]c2ccccc12)C(=O)N[C@@H](CC(C)C)C(=O)N[C@@H](CCCN=C(N)N)C(=O)N[C@@H](CCCCN)C(=O)N[C@@H](CCCCN)C(=O)N[C@@H](CC(C)C)C(=O)N[C@@H](CCC(N)=O)C(=O)N[C@@H](CC(=O)O)C(=O)N[C@H](C(=O)N[C@@H](Cc1cnc[nH]1)C(=O)N[C@@H](CC(N)=O)C(=O)N[C@@H](Cc1ccccc1)C(=O)O)C(C)C)C(C)C [Peptide 2],,28%,23.9%,did not inhibit,no effect,18.1%,no effect,did not significantly change,31.4%,80.4%,35.2%,did not significantly change,0%,
"Cc1cn([C@H]2C[C@H](N=[N+]=[N-])[C@@H](CO)O2)c(=O)[nH]c1=O [AZT, zidovudine, reference compound]",,,,,,,,,,,,,,expected levels of antiviral activity
"CC(C)(C)NC(=O)[C@@H]1CN(Cc2cccnc2)CCN1C[C@@H](O)C[C@@H](Cc1ccccc1)C(=O)N[C@H]1c2ccccc2C[C@H]1O [indinavir, reference compound]",,,,,,,,,,,,,,expected levels of antiviral activity
Gly-Arg-Gly-Asp-Asn-Pro-OH (GRGDNP-OH) [Peptide 1],,no effect,did not reduce,did not inhibit,100%,100%,,did not significantly change,did not significantly change,58.8%,55.6%,23.7%,36.4%,
